Experimental data: patent US5840684A, “Glycopeptide antibiotic derivatives” (Eli Lilly and Company, priority 1995, dated 1998)
Values after ≈ are worked out from the molar mass of the structure shown.

What was measured:
[1] = tested on: Staphylococcus aureus S13E; format: cell-based
Experimental: (§1) The MIC's were determined using a standard broth micro-dilution assay.

[2] = tested on: Staphylococcus aureus SA1199B; format: cell-based
Experimental: as §1

[3] = tested on: Entercoccus faecium 180-1; assay: broth micro-dilution MIC; format: cell-based
Experimental: as §1

Entercoccus faecium 276 = assay: broth micro-dilution MIC; format: cell-based
Experimental: as §1

[4] = tested on: Staphylococcus aureus 446; assay: broth micro-dilution MIC; format: cell-based
Experimental: as §1

[5] = tested on: Staphylococcus aureus 447; assay: broth micro-dilution MIC; format: cell-based
Experimental: as §1

[6] = tested on: Staphylococcus aureus SA1199A; assay: broth micro-dilution MIC; format: cell-based
Experimental: as §1

[7] = tested on: Staphylococcus aureus SA1199; assay: broth micro-dilution MIC; format: cell-based
Experimental: as §1

[8] = tested on: Staphylococcus aureus X400; assay: broth micro-dilution MIC; format: cell-based
Experimental: as §1

[9] = tested on: Staphylococcus aureus X778; assay: broth micro-dilution MIC; format: cell-based
Experimental: as §1

[10] = tested on: Streptococcus pyogenes C203; assay: broth micro-dilution MIC; format: cell-based
Experimental: as §1

Entercoccus faecium 2041 = assay: broth micro-dilution MIC; format: cell-based; settings: Entercoccus faecium 2041
Experimental: (§2) The formula I compounds have in vitro and in vivo activity against Gram-positive pathogenic bacteria. The MIC's were determined using a standard broth micro-dilution assay.

[11] = tested on: Enterococcus gallinarum 245; assay: broth micro-dilution MIC; format: cell-based; settings: Enterococcus gallinarum 245
Experimental: as §2

[12] = tested on: Staphylococcus epidermidis 270; assay: broth micro-dilution MIC; format: cell-based
Experimental: as §2

[13] = tested on: Staphylococcus haemolyticus 105; assay: broth micro-dilution MIC; format: cell-based
Experimental: as §2

[14] = tested on: Staphylococcus haemolyticus 415; assay: broth micro-dilution MIC; format: cell-based
Experimental: as §2

[15] = tested on: Streptococcus pneumoniae P1; assay: broth micro-dilution MIC; format: cell-based
Experimental: as §2

[16] = tested on: vancomycin-resistant enterococci; assay: broth micro-dilution, mean geometric MIC; format: cell-based, Enterococcus faecium and Enterococcus faecalis; settings: enterococci, 24-hour incubation
[17] = tested on: vancomycin-susceptible enterococci; assay: broth micro-dilution, mean geometric MIC; format: cell-based, Enterococcus faecium and Enterococcus faecalis; settings: enterococci, 24-hour incubation
Entercoccus faecium 180 = assay: broth micro-dilution MIC; format: cell-based; settings: Entercoccus faecium 180
Experimental: as §2

[18] = tested on: Staphylococcus aureus 489; assay: broth micro-dilution MIC; format: cell-based
Experimental: as §1

Compound	MIC [1]	MIC [2]	MIC [3]	MIC (Entercoccus faecium 276)	MIC [4]	MIC [5]	MIC [6]	MIC [7]	MIC [8]	MIC [9]	MIC [10]	MIC (Entercoccus faecium 2041)	MIC [11]	MIC [12]	MIC [13]	MIC [14]	MIC [15]	mean geometric MIC, Vancomycin Resistant Strains [16]	mean geometric MIC, Vancomycin Sensitive Strains [17]	MIC (Entercoccus faecium 180)	other results
CNC(CC(C)C)C(=O)NC1C(=O)NC(CC(N)=O)C(=O)NC2C(=O)NC3C(=O)NC(C(=O)NC(C(=O)O)c4cc(O)cc(O)c4-c4cc3ccc4O)C(OC3CC(C)(N)C(O)C(C)O3)c3ccc(c(Cl)c3)Oc3cc2cc(c3OC2OC(CO)C(O)C(O)C2OC2CC(C)(NCc3ccc(S(=O)(=O)c4ccc(Cl)cc4)cc3)C(O)C(C)O2)Oc2ccc(cc2Cl)C1O (stereo not shown) [Compound 148]	1 mg/L (≈ 0.538 µM)	0.5 mg/L (≈ 0.269 µM)	≤ 0.06 mg/L	≤ 0.06 mg/L	1 mg/L (≈ 0.538 µM)	1 mg/L (≈ 0.538 µM)	≤ 0.06 mg/L	2 mg/L (≈ 1.08 µM)	≤ 0.06 mg/L	2 mg/L (≈ 1.08 µM)	≤ 0.06 mg/L	≤ 0.06 mg/L	2 mg/L (≈ 1.08 µM)	0.5 mg/L (≈ 0.269 µM)	1 mg/L (≈ 0.538 µM)	2 mg/L (≈ 1.08 µM)	≤ 0.06 mg/L	0.15 mg/L	0.052 mg/L	–	–
CNC(CC(C)C)C(=O)NC1C(=O)NC(CC(N)=O)C(=O)NC2C(=O)NC3C(=O)NC(C(=O)NC(C(=O)O)c4cc(O)cc(O)c4-c4cc3ccc4O)C(OC3CC(C)(N)C(O)C(C)O3)c3ccc(c(Cl)c3)Oc3cc2cc(c3OC2OC(CO)C(O)C(O)C2OC2CC(C)(NCc3cc(-c4ccccc4)ccc3O)C(O)C(C)O2)Oc2ccc(cc2Cl)C1O (stereo not shown) [Compound 85]	0.5 mg/L (≈ 0.282 µM)	1 mg/L (≈ 0.563 µM)	≤ 0.06 mg/L	–	–	–	≤ 0.06 mg/L	0.5 mg/L (≈ 0.282 µM)	–	–	≤ 0.06 mg/L	≤ 0.06 mg/L	2 mg/L (≈ 1.13 µM)	0.5 mg/L (≈ 0.282 µM)	1 mg/L (≈ 0.563 µM)	2 mg/L (≈ 1.13 µM)	≤ 0.06 mg/L	3.4 mg/L	0.11 mg/L	≤ 0.06 mg/L	–
CNC(CC(C)C)C(=O)NC1C(=O)NC(CC(N)=O)C(=O)NC2C(=O)NC3C(=O)NC(C(=O)NC(C(=O)O)c4cc(O)cc(O)c4-c4cc3ccc4O)C(OC3CC(C)(N)C(O)C(C)O3)c3ccc(c(Cl)c3)Oc3cc2cc(c3OC2OC(CO)C(O)C(O)C2OC2CC(C)(NCCc3ccc(OCc4ccccc4)cc3)C(O)C(C)O2)Oc2ccc(cc2Cl)C1O (stereo not shown) [Compound 68]	≤ 0.06 mg/L	0.5 mg/L (≈ 0.277 µM)	≤ 0.06 mg/L	≤ 0.06 mg/L	–	–	≤ 0.06 mg/L	≤ 0.06 mg/L	≤ 0.06 mg/L	≤ 0.06 mg/L	–	≤ 0.06 mg/L	4 mg/L (≈ 2.22 µM)	2 mg/L (≈ 1.11 µM)	2 mg/L (≈ 1.11 µM)	4 mg/L (≈ 2.22 µM)	–	6.7 mg/L	–	2 mg/L (≈ 1.11 µM)	–
CNC(CC(C)C)C(=O)NC1C(=O)NC(CC(N)=O)C(=O)NC2C(=O)NC3C(=O)NC(C(=O)NC(C(=O)O)c4cc(O)cc(O)c4-c4cc3ccc4O)C(OC3CC(C)(N)C(O)C(C)O3)c3ccc(c(Cl)c3)Oc3cc2cc(c3OC2OC(CO)C(O)C(O)C2OC2CC(C)(NCc3ccc(N4CCCCC4C)cc3)C(O)C(C)O2)Oc2ccc(cc2Cl)C1O (stereo not shown) [Compound 135]	1 mg/L (≈ 0.562 µM)	–	≤ 0.06 mg/L	0.5 mg/L (≈ 0.281 µM)	1 mg/L (≈ 0.562 µM)	1 mg/L (≈ 0.562 µM)	≤ 0.06 mg/L	1 mg/L (≈ 0.562 µM)	≤ 0.06 mg/L	1 mg/L (≈ 0.562 µM)	≤ 0.06 mg/L	–	2 mg/L (≈ 1.12 µM)	0.5 mg/L (≈ 0.281 µM)	0.5 mg/L (≈ 0.281 µM)	2 mg/L (≈ 1.12 µM)	≤ 0.06 mg/L	4.8 mg/L	0.22 mg/L	1 mg/L (≈ 0.562 µM)	–
CNC(CC(C)C)C(=O)NC1C(=O)NC(CC(N)=O)C(=O)NC2C(=O)NC3C(=O)NC(C(=O)NC(C(=O)O)c4cc(O)cc(O)c4-c4cc3ccc4O)C(OC3CC(C)(N)C(O)C(C)O3)c3ccc(c(Cl)c3)Oc3cc2cc(c3OC2OC(CO)C(O)C(O)C2OC2CC(C)(NCc3cccc(OC(=O)c4ccccc4)c3)C(O)C(C)O2)Oc2ccc(cc2Cl)C1O (stereo not shown) [Compound 162]	≤ 0.06 mg/L	≤ 0.06 mg/L	≤ 0.06 mg/L	≤ 0.06 mg/L	0.5 mg/L (≈ 0.277 µM)	≤ 0.06 mg/L	≤ 0.06 mg/L	≤ 0.06 mg/L	≤ 0.06 mg/L	≤ 0.06 mg/L	≤ 0.06 mg/L	≤ 0.06 mg/L	2 mg/L (≈ 1.11 µM)	≤ 0.06 mg/L	–	2 mg/L (≈ 1.11 µM)	≤ 0.06 mg/L	4.8 mg/L	0.12 mg/L	≤ 0.06 mg/L	–
CNC(CC(C)C)C(=O)NC1C(=O)NC(CC(N)=O)C(=O)NC2C(=O)NC3C(=O)NC(C(=O)NC(C(=O)O)c4cc(O)cc(O)c4-c4cc3ccc4O)C(OC3CC(C)(N)C(O)C(C)O3)c3ccc(c(Cl)c3)Oc3cc2cc(c3OC2OC(CO)C(O)C(O)C2OC2CC(C)(NCc3cc(C)cs3)C(O)C(C)O2)Oc2ccc(cc2Cl)C1O (stereo not shown) [Compound 66]	≤ 0.06 mg/L	–	≤ 0.06 mg/L	≤ 0.06 mg/L	–	1 mg/L (≈ 0.587 µM)	≤ 0.06 mg/L	–	–	≤ 0.06 mg/L	–	≤ 0.06 mg/L	8 mg/L (≈ 4.7 µM)	1 mg/L (≈ 0.587 µM)	–	8 mg/L (≈ 4.7 µM)	≤ 0.06 mg/L	16 mg/L	0.76 mg/L	2 mg/L (≈ 1.17 µM)	MIC [18]: 1 mg/L (≈ 0.587 µM)
CNC(CC(C)C)C(=O)NC1C(=O)NC(CC(N)=O)C(=O)NC2C(=O)NC3C(=O)NC(C(=O)NC(C(=O)O)c4cc(O)cc(O)c4-c4cc3ccc4O)C(OC3CC(C)(N)C(O)C(C)O3)c3ccc(c(Cl)c3)Oc3cc2cc(c3OC2OC(CO)C(O)C(O)C2OC2CC(C)(NCc3ccc4cc(OC)ccc4c3)C(O)C(C)O2)Oc2ccc(cc2Cl)C1O (stereo not shown) [Compound 65]	0.5 mg/L (≈ 0.284 µM)	2 mg/L (≈ 1.13 µM)	≤ 0.06 mg/L	0.5 mg/L (≈ 0.284 µM)	2 mg/L (≈ 1.13 µM)	1 mg/L (≈ 0.567 µM)	≤ 0.06 mg/L	0.5 mg/L (≈ 0.284 µM)	–	0.5 mg/L (≈ 0.284 µM)	–	≤ 0.06 mg/L	4 mg/L (≈ 2.27 µM)	1 mg/L (≈ 0.567 µM)	–	4 mg/L (≈ 2.27 µM)	≤ 0.06 mg/L	2.4 mg/L	0.20 mg/L	0.5 mg/L (≈ 0.284 µM)	–
